In patent publication US20160030364A1, “Therapeutic Compositions and Uses Thereof” (MANUKA HEALTH NEW ZEALAND LIMITED, priority 2013, published 2016):
“And” between values parts separate entries of the source, which are not always exact repeats. Equal entries are not always repeated.

How the values were obtained:
Type in all cases: cell-based
[1] = test system: human colon cancer cell line (HCT-116); experiment: MTT anti-proliferative assay, HCT-116 (Examples 3-12); conditions: 200 μg/ml; for % inhibition / % stim. / Mean OD (570 nm): 48 hours
Description: (§1) 5-phenylpenta-2,4-dienoic acid was assessed for its ability to modulate the viability and proliferation of human colorectal adenocarcinoma cells (DLD-1); human colon cancer cell line (HCT-116); human gastric carcinoma cell line (NCI-N87); and human oesophageal squamous cell carcinoma cell line (KYSE-30) as assessed by the MTT assay. The positive control, 5-fluorouracil (5-FU) was included at three concentrations; in addition to an unsupplemented cell control as a negative control in the study. The 5-phenylpenta-2,4-dienoic acid was a genuine standard with chemical structure confirmed by NMR and MS.
(§2) The four human gastrointestinal carcinoma cell lines were revived from cryostorage and cultured in the presence of the test and reference samples. An MTT assay was then performed on the cultures to determine the effect of the samples on the cell viability and proliferation.
(§3) The test sample 5-phenylpenta-2,4-dienoic acid, and all other test samples in Examples 4-12 (except tectochrysln) were Initially dissolved in pure ethanol to a concentration of around 13.35 mg/ml. Tectochrysin was initially dissolved in triethylene glycol mono-methyl ether to the same concentration. Working solutions were then prepared from the stock solutions by dilution to 15% ethanol/Hanks Balanced Salt Solution (ETOH)/HBSS to a concentration of 2 mg/mL solids. In the assay the final concentration of the samples was 200 μg/ml with a final EtOH concentration of 1.5%. Final concentrations of test compounds and propolis prepared as above are as noted in Example 3.
(§4) • 1. Human colorectal adenocarcinoma cells (ATCC CCI-221, DLD-1)(ATCC, Bethesda, Md., USA) • 2. Human gastric carcinoma cells (ATCC CRL-5822, NCI-N87)(ATCC, Bethesda, Md., USA) • 3. Human oesophageal squamous cell carcinoma (ECACC, KYSE-30)(Sigma Aldrich, Auckland, NZ) • 4. Human colon carcinoma cells (ECACC HCT-116)(Sigma Aldrich, Auckland, NZ) • 5. Penicillin-streptomycin solution: 10000 units/ml penicillin, 10 mg/ml streptomycin in 0.9% NaCl (Sigma Cat #P-0781). Stored at −20° C. • 6. For DLD-1 cells: DMEM culture medium (Invitrogen Cat #12100-046). Stored at 4° C. • 7. For NCI-N87 cells: RPMI-1640 medium modified to contain 2 mM L-glutamine, 10 mM HEPES, 1 mM sodium pyruvate, 4500 mg/L glucose, and 1500 mg/L sodium bicarbonate (Sigma R6504). Stored at 4° C. • 8. For KYSE-410 cells: RPMI-1640 medium modified to contain 2 mM L-glutamine (Sigma R6504). Stored at 4° C. • 9. For HCT-116 cells: McCoy's 5A medium modified to contain 2 mM L-glutamine (Sigma M48792). Stored at 4° C. • 10. Trypsin-EDTA solution: 0.25% Trypsin/EDTA, Invitrogen Cat#15400054 (×10 in stock). • 11. Phosphate buffered saline (PBS) (Prepared by TBL). • 12. Hanks Balanced Salt Solution (HBSS). (GIBCO Cat No. 14185-052). Stored at 4° C. • 13. Foetal Bovine Serum (GIBCO Cat #10091-148). Stored at −20° C. • 14. MTT Reagent: 100 mg/vial, (SIGMA Cat. No. M-2128) dissolved in PBS at 10 mg/ml and stored at −20° C. 5 mg/ml MTT solution will be prepared in PBS and stored at 4° C. as working solution. • 15. MTT lysis buffer: 10% sodium dodecyl sulphate (SDS)/45% Dimethyl Formamide (20 g SDS will be dissolved in 100 ml of double-distilled water (DDW), and 90 ml of Dimethyl Formamide will be added to the SDS solution). The pH will be adjusted to 4.7 by glacial acetic acid, and DDW added up to a final volume of 200 ml. • 16. 5-Fluorouracil (5-FU), (Sigma Cat. No. F-6627). Three working solutions will be prepared at 19.5 μg/ml. 6.5 μg/ml and 1.95 μg/ml dissolved in 15% Ethanol/HBSS. Final concentrations will be 1.95 μg/ml (15 μM), 0.65 μg/ml (5 μM) and 0.195 μg/ml (1.5 μM).
(§5) The medium for the propagation of the each of the cells lines is given above. Each medium was prepared following the ATCC/ECACC instructions and supplemented with penicillin-streptomycin solution (10 ml per litre). FBS (at 10%) was added just before use.
• 1. […]

[2] = test system: human colorectal adenocarcinoma cells (DLD-1); experiment: MTT anti-proliferative assay, DLD-1 (Examples 3-12); conditions: 200 μg/ml; for % inhibition / % stim. / Mean OD (570 nm): 48 hours
Description: as §1, §2, §3, §4, §5
• 1. […]

[3] = test system: human gastric carcinoma cell line (NCI-N87); experiment: MTT anti-proliferative assay, NCI-N87 (Examples 3-12); conditions: 200 μg/ml; for % inhibition / % stim. / Mean OD (570 nm): 48 hours
Description: as §1, §2, §3, §4, §5
• 1. […]

[4] = test system: human oesophageal squamous cell carcinoma cell line (KYSE-30); experiment: MTT anti-proliferative assay, KYSE-30 (Examples 3-13)
[5] = test system: human oesophageal squamous cell carcinoma cell line (KYSE-30); experiment: as above; conditions: Examples 3-12, 200 μg/ml, 48 hours
Description: as §1, §2, §3, §4, §5
• 1. […]

[6] = listed as 1,1-dimethylallylcaffeic acid

Compound	% inhibition [1]	% stim. [1] [%]	Mean OD (570 nm) [1]	% inhibition [2]	% stim. [2] [%]	Mean OD (570 nm) [2]	% inhibition [3]	% stim. [3] [%]	Mean OD (570 nm) [3]	% inhibition [5]	% stim. [5] [%]	Mean OD (570 nm) [5]	also measured
1,1-dimethylallyl caffeic acid	96.73%	0	0.0166	93.24%	0	0.0279	86.74%	0	0.0586	97.8%	0	0.0133	% inhibition [1, 6]: 86.7%; % inhibition [2, 6]: 93.2%; % inhibition [3, 6]: 86.7%; % inhibition ([4]; Example 13, 100 μg/ml): 88.63%; Mean OD (570 nm) ([4]; Example 13, 100 μg/ml): 0.0381
C=C(C)CCOC(=O)C=Cc1ccc(O)c(O)c1 [3-methyl-3-butenyl caffeate, 3-methyl-3-butenyl caffeic acid]	96.0% and 96.03%	0	0.0202	91.6% and 91.63%	0	0.0345	84.5% and 84.54%	0	0.0683	96.3% and 96.31%	0	0.0222	% inhibition ([4]; Example 13, 10 μg/ml): 39.3% and 39.33%; Mean OD (570 nm) ([4]; Example 13, 10 μg/ml): 0.2034
COc1cc(/C=C/C(=O)OCc2ccccc2)ccc1O [benzyl ferulate]	95.92%	0	0.0207	86.02%	0	0.0576	86.96%	0	0.0576	98.62%	0	0.0083	inhibition at 200 µg/mL ([1]; Homo sapiens, HCT-116, 48 h): 95.9%; inhibition at 200 µg/mL ([2]; Homo sapiens, DLD-1, 48 h): 86%; inhibition at 200 µg/mL ([3]; Homo sapiens, NCI-N87, 48 h): 87%; Mean OD (570 nm) ([4]; Example 13, 50 μg/ml): 0.0398; inhibition at 50 µg/mL ([4]; Homo sapiens, KYSE-30, Example 13, 50 μg/ml): 88.1%; inhibition at 200 µg/mL ([5]; Homo sapiens, KYSE-30, 48 h): 98.6%
